Measurements taken from patent US20220023269A1, “Methods Of Treating Diabetes In Severe Insulin-Resistant Diabetic Subjects” (Balticgruppen Bio AB, priority 2018, published 2022).

Legend:
[1] = system: primary human hepatocytes; assay: [1,2-14C] acetate incorporation into total lipids; format: cell-based; settings: 0.625, 1.25, 2.5 or 5 μM
Description: Primary human hepatocytes (65,000-130,000 cells/well in 24-well dishes) were treated with vehicle control, 0.625, 1.25, 2.5 or 5 μM test material in serum free Williams' medium E, 2 hours, before addition of 0.25 μCi [1,2-^14C]-acetate/well for an additional 4 hours. 200 μl 0.5% trypsin was used to detach the cells before addition of 800 μl chloroform/methanol (2:1) and 500 μl 4 mM MgCl2. The samples were vortexed and spun at 14,000 rpm, 2 minutes before discarding the aqueous layer. The procedure was repeated twice, first with 700 μl chloroform/methanol (2:1) and 500 μl 4 mM MgCl2 and then 400 μl chloroform/methanol (2:1) and 500 μl 4 mM MgCl2. The organic phase was transferred into a scintillation vial and evaporated to dryness by a stream of nitrogen. The residue was dissolved in 3 ml liquid scintillation cocktail (Optiphase HiSafe 3, Perkin Elmer #1200.437) and 14 C determined for 1 minute in a Wallac 1414 beta counter (Perkin Elmer). Before lipid extraction, 10 μl samples were used to determine protein concentration. 14 C-values were normalised to cellular protein concentration.

hIAPPtg islets = assay: Ex vivo islet amyloid assay; format: cell-based, mouse; settings: 22 mM glucose
Description: Islets amyloid was quantification was done on pancreatic tissues isolated from hIAPPtg mice on HFD for 16 weeks (n=7 mice/n=69 islets) and hIAPPtg mice on HFD for 9 weeks then switched to test material-HFD (2 mg/g) for 7 weeks (n=5 mice/n=48 islets). Isolated pancreases was direct frozen, sectioned, and amyloid content quantified by staining with Thioflavin-S as previously described (Reference 2). For ex vivo analyses, islets were isolated by collagenase digestion of the pancreas (Reference 1) and cultured in RPMI medium 1640 (GIBCO #11879-0) supplemented with 11.1 or 22.2 mM glucose (GIBCO #A24940-01), 1% fetal bovine serum (GIBCO #10500), 50 U; μg/ml Pen/Strep (Gibco #15140-122), 10 mM Hepes (Umeå University, Laboratory medicine), 1 mM sodium pyruvate (GIBCO #11360-039) and 0.1% 2-Mercaptoethanol (Sigma #M3148). 0, 2.5, 5.0, and 10 μM test material were added from day 0 of culture. For assessing the effect of autophagy inhibition, 3-Methyladenine (3-MA, Aldrich #M9281), 5 μM, was added from day 0 of culture in combination with test material, 5 μM. The control contained DMSO 1:2000. Medium and compounds were changed every second day. After 92 hours of treatment islets were embedded, sectioned and amyloid content quantified by staining with Thioflavin-S as previously described (Reference 2). A minimum of 3 independent experiments was evaluated.

AMPK in human islets = assay: AMPK activation in human islets; format: cell-based; settings: 1.0, 2.5, 5.0, 10 μM, 4 hours
Description: All cell lines were lysed in 0.1 M Tris-HCl, pH 6.8, 2% SDS, 10 mM sodium fluoride (SIGMA #S7920), 10 mM β-glycerophosphate (SIGMA #G6376), and 1 mM sodium vanadate (SIGMA #72060) and supernatant collected after 1 minute at 14,000 rpm. Islets (human and mouse) were lysed in 0.1 M Tris-HCl, pH 6.8, 2% SDS, protease inhibitor (Roche #04 693 124 001) and phosphatase inhibitor (Roche #04 906 837 001). Right calf muscle, heart, iWAT, and interscapular BAT was crushed in a pestle using liquid nitrogen and homogenised in ice cold RIPA buffer (150 mM sodium chloride (SIGMA #S7653), 1.0% NP40 (USB), 0.5% sodium deoxycholate (SIGMA #D6750), 0.1% SDS, 50 mM Tris pH 8.0, 20 mM sodium pyrophosphate (SIGMA #71515), 10 mM sodium fluoride, 10 mM β-glycerolphosphate, 1 mM sodium vanadate and protease inhibitor cocktail (Roche #04693124001), 1 tablet/10 ml lysis buffer). The supernatant was collected after 2 min at 14,000 rpm. This procedure was repeated until all fat was eliminated and the supernatant was clear, at 4° C. Samples were analysed on 4-15% polyacrylamide gels. Values were normalised toward AMPKα, β-Actin, GAPDH or the respective non-phosphorylated counterpart.
Table 3 contains origin of cell lines, growth conditions and settings for activation of AMPK via the test material. […]

In the case of `O=C(Nc1nc(=O)n(Cc2ccc(Cl)cc2)s1)c1ccc(Cl)cc1` [test material, 4-chloro-N-[2-[(4-chlorophenyl)methyl]-3-oxo-1,2,4-thiadiazol-5-yl]benzamide], the lipid synthesis [1] is reported as “dose-dependently suppressed lipid synthesis”, the “preventive effect on amyloid formation in presence of autophagy inhibitor 3-MA” value (hIAPPtg islets; 5.0 μM test material + 5.0 μM 3-MA) is reported as “significantly attenuated” and the “amyloid formation (Thio-S+ deposits)” value (hIAPPtg islets; 2.5, 5.0, 10 μM, dose-dependent) is reported as “attenuated amyloid formation”. For the same compound, the pAMPKα (AMPK in human islets) was “directly increased pAMPKα”.
